In US20240294522A1 (Lead Discovery Center GmbH, priority 2021, published 2024):

Legend:
GRK5 = molecular target: T1, GRK5 (Homo sapiens, UniProt P34947); assay: Lance Kinase Activity Assay, GRK5; settings: biochemical Lance kinase activity assay; class symbols A-F; read-out: GRK5 LANCE Assay (IC-50)
T1 construct: purchased Thermo Scientific
Summary of the method: (§1)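 IC50s from sigmoidal dose-response over 0.0025-10 μM compound, with phosphorylated ULight substrate detected by Eu anti-phospho antibody FRET after EDTA quench.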

GRK2 = molecular target: T2, GRK2 (Homo sapiens, UniProt P25098); assay: Lance Kinase Activity Assay, GRK2; settings: biochemical Lance kinase activity assay; class symbols A-F; read-out: GRK2 LANCE Assay (IC-50)
T2 construct: purchased Thermo Scientific
T2 sequence (P25098 1-689): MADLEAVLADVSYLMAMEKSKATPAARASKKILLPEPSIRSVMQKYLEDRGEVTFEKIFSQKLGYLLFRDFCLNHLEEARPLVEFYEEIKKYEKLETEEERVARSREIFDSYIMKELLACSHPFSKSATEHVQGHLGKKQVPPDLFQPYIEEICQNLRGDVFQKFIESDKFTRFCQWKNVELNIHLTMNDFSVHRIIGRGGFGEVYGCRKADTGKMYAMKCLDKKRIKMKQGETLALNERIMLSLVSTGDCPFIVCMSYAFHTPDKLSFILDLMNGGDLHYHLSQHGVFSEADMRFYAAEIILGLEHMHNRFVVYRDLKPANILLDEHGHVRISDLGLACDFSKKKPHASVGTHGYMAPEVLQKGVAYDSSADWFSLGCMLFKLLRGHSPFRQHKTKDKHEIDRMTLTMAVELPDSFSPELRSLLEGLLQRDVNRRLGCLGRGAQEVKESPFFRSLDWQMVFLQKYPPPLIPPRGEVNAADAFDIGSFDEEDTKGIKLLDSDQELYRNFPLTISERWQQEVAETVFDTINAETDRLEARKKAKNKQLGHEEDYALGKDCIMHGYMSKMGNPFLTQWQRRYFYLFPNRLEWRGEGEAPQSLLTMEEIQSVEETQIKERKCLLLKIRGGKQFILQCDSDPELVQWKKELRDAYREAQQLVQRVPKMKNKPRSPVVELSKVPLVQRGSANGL
Summary of the method: as §1

T1 sequence (P34947 whole entry): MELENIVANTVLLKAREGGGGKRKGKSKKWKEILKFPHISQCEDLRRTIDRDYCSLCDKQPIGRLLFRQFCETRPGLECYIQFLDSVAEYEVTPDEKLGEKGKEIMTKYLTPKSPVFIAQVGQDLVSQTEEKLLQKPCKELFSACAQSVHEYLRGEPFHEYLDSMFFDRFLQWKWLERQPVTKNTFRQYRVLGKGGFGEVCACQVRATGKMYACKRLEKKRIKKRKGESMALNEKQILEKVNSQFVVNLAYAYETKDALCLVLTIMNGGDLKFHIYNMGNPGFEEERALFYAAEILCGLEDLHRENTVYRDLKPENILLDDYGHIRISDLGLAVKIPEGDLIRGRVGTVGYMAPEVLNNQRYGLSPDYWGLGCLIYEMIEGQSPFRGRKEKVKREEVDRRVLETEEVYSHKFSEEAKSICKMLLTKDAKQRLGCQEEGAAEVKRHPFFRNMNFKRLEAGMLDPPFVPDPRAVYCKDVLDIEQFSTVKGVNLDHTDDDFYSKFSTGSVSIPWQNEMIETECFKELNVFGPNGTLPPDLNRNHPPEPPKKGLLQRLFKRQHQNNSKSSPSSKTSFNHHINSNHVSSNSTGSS

IC50 (GRK5) [nM]	IC50 (GRK2) [µM]	Structure (SMILES)
1000 to 10000	> 10	CN(C)c1ccccc1CNC(=O)/C(C#N)=C/c1c[nH]c2ncccc12 [Example 25, (E)-2-cyano-N-(2-(dimethylamino)benzyl)-3-(1H-pyrrolo[2,3-b]pyridin-3-yl)acrylamide]
≤ 50	> 10	COc1ccc([C@@H](C)NC(=O)/C=C/c2c[nH]c3ncc(-c4cncc(S(C)(=O)=O)c4)cc23)cc1OC [Example 218, (R,E)-N-(1-(3,4-dimethoxyphenyl)ethyl)-3-(5-(5-(methylsulfonyl)pyridin-3-yl)-1H-pyrrolo[2,3-b]pyridin-3-yl)acrylamide]
≤ 50	0.5 to 1	COc1ccc([C@@H](C)NC(=O)/C=C/c2c[nH]c3ncc(-c4cnn(C)c4C#N)cc23)cc1OC [Example 211, (R,E)-3-(5-(5-cyano-1-methyl-1H-pyrazol-4-yl)-1H-pyrrolo[2,3-b]pyridin-3-yl)-N-(1-(3,4-dimethoxyphenyl)ethyl)acrylamide]
100 to 500	1 to 10	N#C/C(=C\c1c[nH]c2ncccc12)C(=O)NCc1ccc(F)cc1 [Example 57, (E)-2-cyano-N-(4-fluorobenzyl)-3-(1H-pyrrolo[2,3-b]pyridin-3-yl)acrylamide]
100 to 500	1 to 10	O=C(/C=C/c1c[nH]c2ncc(Cl)cc12)NCc1cccc(F)c1 [Example 7, (E)-3-(5-chloro-1H-pyrrolo[2,3-b]pyridin-3-yl)-N-(3-fluorobenzyl)acrylamide]

Second part, the molecule before the results:

Structure (SMILES)	IC50 (GRK5) [nM]	IC50 (GRK2) [µM]
COc1ccc([C@@H](C)NC(=O)/C=C/c2c[nH]c3nccc(-c4ccc(F)cc4OC)c23)cc1OC [Example 229, (R,E)-N-(1-(3,4-dimethoxyphenyl)ethyl)-3-(4-(4-fluoro-2-methoxyphenyl)-1H-pyrrolo[2,3-b]pyridin-3-yl)acrylamide]	1000 to 10000	> 10
COc1ccc([C@@H](C)NC(=O)/C=C/c2c[nH]c3ncc(-c4cccnc4)cc23)cc1OC [Example 186, (R,E)-N-(1-(3,4-dimethoxyphenyl)ethyl)-3-(5-(pyridin-3-yl)-1H-pyrrolo[2,3-b]pyridin-3-yl)acrylamide]	≤ 50	1 to 10
COc1ccc(-c2cnc3[nH]cc(/C=C(/C#N)C(=O)N[C@H](C)c4ccc(OC)c(OC)c4)c3c2)cc1OC [Example 146]	50 to 100	> 10
C[C@@H](NC(=O)/C(C#N)=C/c1c[nH]c2ncc(Br)cc12)c1ccc(F)cc1 [Example 79, (R,E)-3-(5-bromo-1H-pyrrolo[2,3-b]pyridin-3-yl)-2-cyano-N-(1-(4-fluorophenyl)ethyl)acrylamide]	100 to 500	1 to 10
CC[S+]([O-])c1cccc(-c2ccnc3[nH]cc(/C=C/C(=O)N[C@H](C)c4ccc(OC)c(OC)c4)c23)c1 (stereo partly drawn) [Example 239, (E)-N-((R)-1-(3,4-dimethoxyphenyl)ethyl)-3-(4-(3-(ethylsulfinyl)phenyl)-1H-pyrrolo[2,3-b]pyridin-3-yl)acrylamide]	500 to 1000	> 10
COc1ccc([C@@H](C)NC(=O)/C=C/c2c[nH]c3ncc(-c4cccc(S(N)(=O)=O)c4)cc23)cc1OC [Example 208, (R,E)-N-(1-(3,4-dimethoxyphenyl)ethyl)-3-(5-(3-sulfamoylphenyl)-1H-pyrrolo[2,3-b]pyridin-3-yl)acrylamide]	≤ 50	1 to 10
COc1ccc([C@@H](C)NC(=O)/C=C/c2c[nH]c3ncc(-c4ccc(F)cc4OC)cc23)cc1OC [Example 201, (R,E)-N-(1-(3,4-dimethoxyphenyl)ethyl)-3-(5-(4-fluoro-2-methoxyphenyl)-1H-pyrrolo[2,3-b]pyridin-3-yl)acrylamide]	100 to 500	> 10
COc1ccc([C@@H](C)NC(=O)/C(C#N)=C/c2c[nH]c3ncc(-c4ccccc4)cc23)cc1OC [Example 116]	50 to 100	> 10
